Test system: P12-Ichikawa
Assay: cell viability relative to DMSO control; higher = less cytotoxic
Conditions: 48 h
Summary of the method: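 Library compounds in DMSO were pin-dosed into 1536-well plates (5 μl) holding NOMO1 or SEM (500 cells/well) or P12-Ichikawa (1000 cells/well) leukemia cells, across an 11-point threefold series of 47 μM to 0.79 nM. Each cell line had been adapted for at least four passages in each medium. CellTiter-Glo One luminescence was read after 48 h at 37°C. Viability is the per-plate percentage relative to DMSO wells, with cell-free wells as background.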

[1] = RPMI 5 mM glucose + 10% FBS, 0.000781 µM
[2] = RPMI 5 mM glucose + 10% FBS, 0.00234 µM
[3] = RPMI 5 mM glucose + 10% FBS, 0.00702 µM
[4] = RPMI 5 mM glucose + 10% FBS, 0.0211 µM
[5] = RPMI 5 mM glucose + 10% FBS, 0.0632 µM
[6] = RPMI 5 mM glucose + 10% FBS, 0.19 µM
[7] = RPMI 5 mM glucose + 10% FBS, 0.569 µM
[8] = RPMI 5 mM glucose + 10% FBS, 1.71 µM
[9] = RPMI 5 mM glucose + 10% FBS, 5.12 µM
[10] = RPMI 5 mM glucose + 10% FBS, 15.4 µM
[11] = RPMI 5 mM glucose + 10% FBS, 46.1 µM
[12] = HPLM + 10% dialyzed FBS, 0.000781 µM
[13] = HPLM + 10% dialyzed FBS, 0.00234 µM
[14] = HPLM + 10% dialyzed FBS, 0.00702 µM
[15] = HPLM + 10% dialyzed FBS, 0.0211 µM
[16] = HPLM + 10% dialyzed FBS, 0.0632 µM
[17] = HPLM + 10% dialyzed FBS, 0.19 µM
[18] = HPLM + 10% dialyzed FBS, 0.569 µM
[19] = HPLM + 10% dialyzed FBS, 1.71 µM
[20] = HPLM + 10% dialyzed FBS, 5.12 µM
[21] = HPLM + 10% dialyzed FBS, 15.4 µM
[22] = HPLM + 10% dialyzed FBS, 46.1 µM
[23] = RPMI 5 mM glucose + 10% dialyzed FBS, 0.000781 µM
[24] = RPMI 5 mM glucose + 10% dialyzed FBS, 0.00234 µM
[25] = RPMI 5 mM glucose + 10% dialyzed FBS, 0.00702 µM
[26] = RPMI 5 mM glucose + 10% dialyzed FBS, 0.0211 µM
[27] = RPMI 5 mM glucose + 10% dialyzed FBS, 0.0632 µM
[28] = RPMI 5 mM glucose + 10% dialyzed FBS, 0.19 µM
[29] = RPMI 5 mM glucose + 10% dialyzed FBS, 0.569 µM
[30] = RPMI 5 mM glucose + 10% dialyzed FBS, 1.71 µM
[31] = RPMI 5 mM glucose + 10% dialyzed FBS, 5.12 µM
[32] = RPMI 5 mM glucose + 10% dialyzed FBS, 15.4 µM
[33] = RPMI 5 mM glucose + 10% dialyzed FBS, 46.1 µM

| Compound | cell viability [1] [%] | cell viability [2] [%] | cell viability [3] [%] | cell viability [4] [%] | cell viability [5] [%] | cell viability [6] [%] | cell viability [7] [%] | cell viability [8] [%] | cell viability [9] [%] | cell viability [10] [%] | cell viability [11] [%] | cell viability [12] [%] | cell viability [13] [%] | cell viability [14] [%] | cell viability [15] [%] | cell viability [16] [%] | cell viability [17] [%] | cell viability [18] [%] | cell viability [19] [%] | cell viability [20] [%] | cell viability [21] [%] | cell viability [22] [%] | cell viability [23] [%] | cell viability [24] [%] | cell viability [25] [%] | cell viability [26] [%] | cell viability [27] [%] | cell viability [28] [%] | cell viability [29] [%] | cell viability [30] [%] | cell viability [31] [%] | cell viability [32] [%] | cell viability [33] [%] |
| --- | --- | --- | --- | --- | --- | --- | --- | --- | --- | --- | --- | --- | --- | --- | --- | --- | --- | --- | --- | --- | --- | --- | --- | --- | --- | --- | --- | --- | --- | --- | --- | --- | --- |
| NCC(=O)Nc1ccc(-n2nc(C(F)(F)F)cc2-c2ccc3c(ccc4ccccc43)c2)cc1 | 24.1 | 123 | 137 | 133 | 125 | 120 | 105 | 106 | 92.1 | 79.2 | 79 | – | – | – | – | – | – | – | – | – | – | – | – | – | – | – | – | – | – | – | – | – | – |
| COc1cc([C@@H]2c3cc4c(cc3[C@@H](O[C@@H]3O[C@@H]5CO[C@@H](c6cccs6)O[C@H]5[C@H](O)[C@H]3O)[C@H]3COC(=O)[C@H]23)OCO4)cc(OC)c1O | 77.3 | 87.9 | 89.2 | 95.8 | 83.3 | 80.1 | 68 | 6.52 | 55.9 | 5.89 | 4.88 | 89.9 | 91.6 | 92.9 | 93 | 90.1 | 88.2 | 83 | 9.83 | 71.4 | 6.48 | 6.62 | 84.4 | 91.5 | 88.5 | 82.3 | 82.7 | 74.6 | 73.7 | 8.53 | 59 | 6.51 | 4.64 |
| Oc1cc(O)cc(/C=C/c2ccc(O)c(O)c2)c1 | 97.5 | 92.7 | 101 | 104 | 102 | 97.8 | 105 | 97 | 85 | 91.1 | 45.6 | 103 | 103 | 100 | 106 | 103 | 109 | 106 | 111 | 98 | 85.2 | 28.3 | 87.6 | 88.3 | 101 | 104 | 102 | 104 | 93 | 101 | 93.6 | 84.4 | 40.7 |
| CCN(C)C(=O)Oc1cccc([C@H](C)N(C)C)c1 | 106 | 104 | – | 102 | 99.7 | 102 | 113 | 101 | 95.6 | 102 | 99.2 | 117 | 105 | 104 | 114 | 106 | 105 | 107 | 107 | 99.5 | 96.4 | 104 | 103 | 102 | 99.3 | 98.7 | 103 | 104 | 104 | 98.2 | 93.4 | 94.7 | 86.7 |
| Cc1ccc(-c2ncn(-c3ccc(Nc4nccc(-c5cccc(N6CCOCC6)c5)n4)cc3)n2)cn1 | 92.2 | 92.8 | 90.2 | 89.8 | 94.5 | 83.6 | 3.59 | 3.74 | 2.21 | 3.15 | 3.43 | 93.9 | 94.5 | 94.8 | 98.2 | 96.1 | 90.7 | 5.93 | 5.41 | 5.42 | 4.29 | 4.16 | 82.2 | 87.5 | 80.8 | 86.6 | 87.6 | 96.3 | 3.87 | 3.59 | 2.81 | 2.93 | 2.94 |
| O=C(CCCCCCC(=O)Nc1ccccc1)NO | 91.9 | 97 | 108 | 107 | 110 | 104 | 111 | 96.8 | 23.3 | 4.38 | 3.81 | 87.9 | 99.3 | 100 | 98.4 | 110 | 109 | 105 | 98.8 | 39 | 5.48 | 3.81 | 92.4 | 100 | 98.1 | 109 | 107 | 103 | 102 | 95.6 | 19.7 | 5.15 | 3.53 |
| C[C@@H]1C[C@H]2[C@@H]3CC\C4=C\C(=O)\C=C/[C@]4(C)[C@@]3(Cl)[C@@H](O)C[C@]2(C)[C@@]1(OC(=O)C5=CC=CO5)C(=O)CCl | 99.2 | 97.7 | 65.4 | 54.6 | 52.1 | 49.3 | 53.7 | 51.3 | 41.6 | 32.6 | 40.2 | 98.5 | 93.7 | 71.9 | 66.9 | 64.6 | 64.7 | 60.8 | 61.6 | 57.9 | 40.9 | 50 | 93 | 84.6 | 59.1 | 50.6 | 44.1 | 46.2 | 40 | 41.2 | 35.8 | 30.2 | 30.7 |
| OC1=CC=C(C=C1)\C2=C\C(=O)C3=C(O2)C=C(O)C=C3O | 111 | 109 | 112 | 111 | 105 | 106 | 104 | 105 | 104 | 109 | 96.6 | 110 | 112 | 113 | 119 | 114 | 120 | 116 | 108 | 107 | 108 | 109 | 117 | 120 | 119 | 122 | 118 | 113 | 115 | 109 | 110 | 103 | 96.4 |
